Test results taken from patent US20230357193A1, “COMPOUND CAPABLE OF INHIBITING AND DEGRADING ANDROGEN RECEPTORS, AND PHARMACEUTICAL COMPOSITIONS AND PHARMACEUTICAL USES THEREOF” (Sichuan Haisco Pharmaceutical Co., Ltd., priority 2020, published 2023).
Like-named read-outs stand apart in the source and are kept apart here.

How the values were obtained:
[1] = tested on: Prostate cancer cells VCaP; assay: Experiment on inhibiting VCaP cell proliferation (CellTiter-Glo, with 0.1 nM R1881); format: cell-based; details: Homo sapiens, 168 h, read-out: GI50 for inhibition of VCaP cells
Experimental: Prostate cancer cells VCaP were purchased from ATCC, the cell medium was 1640 + 10% FBS, and the cells were cultured in an incubator at 37° C. under 5% CO2. On day 1, the cells in an exponential phase were collected. With a 1% css-FBS phenol red-free medium, the cell suspension was adjusted to a corresponding concentration, plated into T0 wells at 7500 cells/well and incubated for 3 days. After the incubation was completed, R1881 at a final concentration of 0.1 nM and compounds at different concentrations were added, and the plate was placed in the incubator and incubated for another 7 days. On the day of the addition, T0 plate was detected using a CellTiter-Glo kit and recorded as RLU0. After the incubation was completed, 100 µL of mediums was pipetted from each well. According to operation instructions for a CellTiter-Glo kit (Promega, G7573), 50 µL of CellTiter-Glo reagents, which were already pre-melted and equilibrated to room temperature, were then added to each well, and the mixtures were uniformly mixed for 2 min using a microplate shaker. The plate was placed at room temperature for 10 min, and then […] signal values were measured using a microplate reader (PHERAstar FSX). The results were processed according to formula (1), the inhibition rate of the compound at different concentrations was calculated, and the GI50 value of the compound with an inhibition rate of 50% was calculated using origin9.2 software, wherein RLU compound was the readout of the treated group, and RLUcontrol was the average value of the solvent control group.

[2] = tested on: Prostate cancer cells 22RV1; assay: Experiment on inhibiting 22RV1 cell proliferation (CellTiter-Glo); format: cell-based; details: Homo sapiens, 168 h, 22RV1 cells, 7 days incubation, read-out: IC50 for inhibition of 22RV1 cells
Experimental: Prostate cancer cells 22RV1 were purchased from ATCC, the cell medium was RPMI 1640 + 10% FBS, and the cells were cultured in an incubator at 37° C. under 5% CO2. On day 1, the cells in an exponential phase were collected. With a 1% css-FBS phenol red-free medium, the cell suspension was adjusted to a corresponding concentration, plated at 2000 cells/well and incubated overnight. On day 2, compounds at different concentrations were added, and the plate was placed in the incubator and incubated for another 7 days. After the incubation was completed, according to operation instructions for a CellTiter-Glo kit (Promega, G7573), 50 µL of CellTiter-Glo reagents, which were already pre-melted and equilibrated to room temperature, were added to each well, and the mixtures were uniformly mixed for 2 min using a microplate shaker. The plate was placed at room temperature for 10 min, and then […] signal values were measured using a microplate reader (PHERAstar FSX). The results were processed according to formula (2), the inhibition rate of the compound at different concentrations was calculated, and the IC50 value of the compound with an inhibition rate of 50% was calculated using origin9.2 software with DoseResp function, wherein RLUcompound was the readout of the treated group, and RLUcontrol was the average value of the DMSO solvent control group.

[3] = Pharmacokinetic experiment in rats; format: in vivo; details: male SD rats, i.g. 20 mg/kg
Experimental: Objective: in this experiment, a single dose of each test compound was administered to SD rats intravenously and intragastrically, the concentrations of the test compound in plasma of rats were measured, and the pharmacokinetic characteristics and bioavailability of the test compound in rats were evaluated.
Experimental animals: male SD rats, 200-250 g, 6-8 weeks old, 6 rats/compound, purchased from CHENGDU DOSSY EXPERIMENTAL ANIMALS CO., LTD.
Experimental method: on the day of the experiment, six SD rats were randomly grouped according to their body weights. The animals were fasted but with water available for 12 to 14 hours one day before the administration, and were fed 4 h after the administration.
Sampling: before and after the administration, 0.1 mL of blood was taken from the orbit of the rats under isoflurane anesthesia and placed in an EDTAK2 centrifuge tube. Centrifugation was carried out at 5000 rpm at 4° C. for 10 min, and the plasma was collected.
Time points for plasma collection in G1 and G2 groups: 0, 5 min, 15 min, 30 min, 1 h, 2 h, 4 h, 6 h, 8 h, and 24 h.
Before analysis and detection, all samples were stored at -80° C. The samples were analyzed quantitatively by LC-MS/MS.

[4] = VCaP cells, 0.1 nM R1881, 7 days incubation, CellTiter-Glo

SMILES | GI50 [1, 4] [nM] | other results
CC(C)(C(=O)Nc1ccc(C#N)c(C(F)(F)F)c1)n1cc(C2CCN(CC3CCN(c4ccc5c(c4)C(=O)N(C4CCC(=O)NC4=O)C5=O)C3)CC2)cn1 (stereo not shown) [Compound 2, N-(4-cyano-3-(trifluoromethyl)phenyl)-2-(4-(1-((1-(2-(2,6-dioxopiperidin-3-yl)-1,3-dioxoisoindolin-5-yl)pyrrolidin-3-yl)methyl)piperidin-4-yl)-1H-pyrazol-1-yl)-2-methylpropanamide] | 4790 | 
CC(C)(C(=O)Nc1ccc(C#N)c(C(F)(F)F)c1)n1cc(C2CCN(C3CCC4(CC3)CN(c3ccc5c(c3)C(=O)N(C3CCC(=O)NC3=O)C5=O)C4)CC2)cn1 (stereo not shown) [Compound 3, N-(4-cyano-3-(trifluoromethyl)phenyl)-2-(4-(1-(2-(2-(2,6-dioxopiperidin-3-yl)-1,3-dioxoisoindolin-5-yl)-2-azaspiro[3.5]nonan-7-yl)piperidin-4-yl)-1H-pyrazol-1-yl)-2-methylpropanamide] | 3090 | 
N#Cc1ccc(NC(=O)C2(n3cc(C4CCN(CC5CCN(c6ccc7c(c6)C(=O)N(C6CCC(=O)NC6=O)C7=O)C5)CC4)cn3)CCC2)cc1C(F)(F)F (stereo not shown) [Compound 4] | 1810 | 
CC(C)(C(=O)Nc1ccc(C#N)c(C(F)(F)F)c1)n1cc(C2CCN(c3ccc4c(c3)C(=O)N(C3CCC(=O)NC3=O)C4=O)CC2)cn1 (stereo not shown) [Compound 5, N-(4-cyano-3-(trifluoromethyl)phenyl)-2-(4-(1-(2-(2,6-dioxopiperidin-3-yl)-1,3-dioxoisoindolin-5-yl)piperidin-4-yl)-1H-pyrazol-1-yl)-2-methylpropanamide] | 1910 | 
N#Cc1ccc(NC(=O)C2(n3cc(C#CC4CN(C5CN(c6ccc7c(c6)C(=O)N(C6CCC(=O)NC6=O)C7=O)C5)C4)cn3)CCC2)cc1C(F)(F)F (stereo not shown) [Compound 6, N-[4-cyano-3-(trifluoromethyl)phenyl]-1-[4-[2-[1-[1-[2-(2,6-dioxo-3-piperidyl)-1,3-dioxo-isoindolin-5-yl]azetidin-3-yl]azetidin-3-yl]ethynyl]pyrazol-1-yl]cyclobutanecarboxamide] | 1690 | 
N#Cc1ccc(NC(=O)C2(n3cc(C#CC4CN(c5ccc6c(c5)C(=O)N(C5CCC(=O)NC5=O)C6=O)C4)cn3)CCC2)cc1C(F)(F)F (stereo not shown) [Compound 7, N-[4-cyano-3-(trifluoromethyl)phenyl]-1-[4-[2-[1-[2-(2,6-dioxo-3-piperidyl)-1,3-dioxo-isoindolin-5-yl]azetidin-3-yl]ethynyl]pyrazol-1-yl]cyclobutanecarboxamide] | 470 | 
CC(C)(C(=O)Nc1ccc(C#N)c(C(F)(F)F)c1)n1cc(C#CC2CN(C3CN(c4ccc5c(c4)C(=O)N(C4CCC(=O)NC4=O)C5=O)C3)C2)cn1 (stereo not shown) [Compound 8, N-(4-cyano-3-(trifluoromethyl)phenyl)-2-(4-((1′-(2-(2,6-dioxopiperidin-3-yl)-1,3-dioxoisoindolin-5-yl)-[1,3′-biazetidin]-3-yl)ethynyl)-1H-pyrazol-1-yl)-2-methylpropanamide] | 3960 | 
CC(C)(C(=O)Nc1ccc(C#N)c(C(F)(F)F)c1)n1cc(C#CC2CN(c3ccc4c(c3)C(=O)N(C3CCC(=O)NC3=O)C4=O)C2)cn1 (stereo not shown) [Compound 9, N-(4-cyano-3-(trifluoromethyl)phenyl)-2-(4-((1-(2-(2,6-dioxopiperidin-3-yl)-1,3-dioxoisoindolin-5-yl)azetidin-3-yl)ethynyl)-1H-pyrazol-1-yl)-2-methylpropanamide] |  | IC50 [2]: 78 nM; Oral bioavailability [3]: Yes; AUC(0-t) ([3]; rat, po, plasma): 45600 ± 3720 ng·h/mL; half-life ([3]; rat, po, plasma): 1440 ± 600 min; GI50 ([1]; VCaP): 180 nM
CC(C)(C(=O)Nc1ccc(C#N)c(C(F)(F)F)c1)n1cc(C#CC2CCN(c3ccc4c(c3)C(=O)N(C3CCC(=O)NC3=O)C4=O)CC2)cn1 (stereo not shown) [Compound 10, N-(4-cyano-3-(trifluoromethyl)phenyl)-2-(4-((1-(2-(2,6-dioxopiperidin-3-yl)-1,3-dioxoisoindolin-5-yl)piperidin-4-yl)ethynyl)-1H-pyrazol-1-yl)-2-methylpropanamide] | 330 | 
